Source: patent publication US9708334B2, “Substituted 2,4,5,6-tetrahydropyrrolo[3,4-c]pyrazole and 4,5,6,7-tetrahydro-2H-pyrazolo[4,3-c]pyridine compounds as GlyT1 inhibitors” (DART NEUROSCIENCE (CAYMAN) LTD., priority 2014, dated 2017)

Target: T1, GlyT1 (Homo sapiens, UniProt P48067)
T1 construct: expressed in transfected cells
T1 sequence (P48067 1-706): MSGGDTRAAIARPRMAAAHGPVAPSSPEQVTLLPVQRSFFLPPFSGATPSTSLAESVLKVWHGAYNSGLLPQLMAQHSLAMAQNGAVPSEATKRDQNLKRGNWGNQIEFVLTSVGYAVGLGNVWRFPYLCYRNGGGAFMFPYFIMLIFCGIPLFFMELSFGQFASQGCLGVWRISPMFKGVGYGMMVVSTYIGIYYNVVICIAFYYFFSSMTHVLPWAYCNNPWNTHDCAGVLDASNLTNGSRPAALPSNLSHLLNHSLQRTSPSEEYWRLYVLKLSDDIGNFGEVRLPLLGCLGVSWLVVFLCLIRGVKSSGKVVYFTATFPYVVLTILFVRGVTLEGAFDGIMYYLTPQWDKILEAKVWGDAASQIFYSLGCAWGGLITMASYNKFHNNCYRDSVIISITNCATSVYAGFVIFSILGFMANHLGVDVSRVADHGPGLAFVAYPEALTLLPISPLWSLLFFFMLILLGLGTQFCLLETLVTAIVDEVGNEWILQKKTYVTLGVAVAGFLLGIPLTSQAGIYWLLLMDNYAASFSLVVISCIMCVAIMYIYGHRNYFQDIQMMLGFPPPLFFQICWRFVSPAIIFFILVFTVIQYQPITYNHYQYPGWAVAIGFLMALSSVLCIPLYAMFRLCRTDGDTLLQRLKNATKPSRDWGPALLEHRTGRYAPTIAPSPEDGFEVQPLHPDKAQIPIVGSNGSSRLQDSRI
Assay: Glycine Transporter 1 (GlyT1) uptake assay, scintillation proximity assay of [14C]-glycine uptake
Type: cell-based
Conditions: SPA, four parameter logistic fit, read-out: GlyT1 (pIC50) (converted)
Procedure, shortened: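 [14C]-glycine uptake read by scintillation proximity on a plate counter. IC50 from four-parameter logistic fit of dose-response data.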

**Q.** For `CC(C)S(=O)(=O)c1ccc(O[C@@H](C)C(F)(F)F)c(C(=O)N2Cc3cn(-c4cccc(C(F)(F)F)c4F)nc3C2)c1` [Example 86, 2-[2-Fluoro-3-(trifluoromethyl)phenyl]-5-[5-(propane-2-sulfonyl)-2-{[(2S)-1 1 1-trifluoropropan-2-yl]oxy}benzoyl]-2H 4H 5H 6H-pyrrolo[3,4-c]pyrazole], which IC50 is on record?
**A.** Its IC50 is 100 to 1000 nM.

**Q.** `N#Cc1ccc(C2CCC2)c(C(=O)N2CCc3nn(-c4ccccc4)cc3C2)c1` [Example 174, 4-Cyclobutyl-3-{2-phenyl-2H 4H 5H 6H 7H-pyrazolo[4,3-c]pyridine-5-carbonyl}benzonitrile] was tested. Which IC50 did it give?
**A.** The IC50 was 1000 to 10000 nM.

**Q.** With `CC(C)Oc1ccc(S(C)(=O)=O)cc1C(=O)N1Cc2cn(-c3ccccc3)nc2C1` [Example 45, 5-[5-Methanesulfonyl-2-(propan-2-yloxy)benzoyl]-2-phenyl-2H 4H 5H 6H-pyrrolo[3,4-c]pyrazole] as the compound, how does the IC50 read?
**A.** Its IC50 is < 100 nM.

**Q.** How did the IC50 turn out when `COc1c(C#N)ccc(OCC2(C)CC2)c1C(=O)N1CCc2nn(-c3ccc(F)cc3)cc2C1` [Example 475, 3-[2-(4-Fluorophenyl)-2H 4H 5H 6H 7H-pyrazolo[4,3-c]pyridine-5-carbonyl]-2-methoxy-4-[(1-methylcyclopropyl)methoxy]benzonitrile] was run?
**A.** Its IC50 is > 10000 nM.

**Q.** Which IC50 does the source give for `CC(Oc1ccc(C#N)c(Cl)c1C(=O)N1CCc2nn(-c3ccc(F)cn3)cc2C1)C(F)(F)F` (centres unmarked) [Example 201, 2-Chloro-3-[2-(5-fluoropyridin-2-yl)-2H 4H 5H 6H 7H-pyrazolo[4,3-c]pyridine-5-carbonyl]-4-[(1 1 1-trifluoropropan-2-yl)oxy]benzonitrile] here?
**A.** The IC50 was 100 to 1000 nM.

**Q.** For `CC(C)COc1ccc(S(C)(=O)=O)cc1C(=O)N1Cc2cn(-c3cc(Cl)ccc3F)nc2C1` [Example 68, 2-(5-Chloro-2-fluorophenyl)-5-[5-methanesulfonyl-2-(2-methylpropoxy)benzoyl]-2H 4H 5H 6H-pyrrolo[3,4-c]pyrazole], which IC50 is on record?
**A.** Its IC50 is < 100 nM.

**Q.** For `CCS(=O)(=O)c1ccc(OC(C)C)c(C(=O)N2Cc3cn(-c4ccc(F)cc4)nc3C2)c1` [Example 84, 5-[5-(Ethanesulfonyl)-2-(propan-2-yloxy)benzoyl]-2-(4-fluorophenyl)-2H 4H 5H 6H-pyrrolo[3,4-c]pyrazole], which IC50 is on record?
**A.** Its IC50 is < 100 nM.

**Q.** How did the IC50 turn out when `CC(C)Oc1ccc(S(=O)(=O)C(C)C)cc1C(=O)N1Cc2cn(-c3ccccc3F)nc2C1` [Example 95, 2-(2-Fluorophenyl)-5-[2-(propan-2-yloxy)-5-(propane-2-sulfonyl)benzoyl]-2H 4H 5H 6H-pyrrolo[3,4-c]pyrazole] was run?
**A.** Its IC50 is 1000 to 10000 nM.

**Q.** `COc1c(C#N)ccc(C2(F)CCC(F)(F)CC2)c1C(=O)N1CCc2nn(-c3cccnc3)cc2C1` [Example 13, 2-Methoxy-3-[2-(pyridin-3-yl)-2H 4H 5H 6H 7H-pyrazolo[4,3-c]pyridine-5-carbonyl]-4-(1 4 4-trifluorocyclohexyl)benzonitrile] was tested. Which IC50 did it give?
**A.** Its IC50 is 1000 to 10000 nM.

**Q.** Which IC50 does the source give for `COc1c(C#N)ccc(OC(C)C(F)(F)F)c1C(=O)N1CCc2nn(-c3ccccn3)cc2C1` (centres unmarked) [Example 217, 2-Methoxy-3-[2-(pyridin-2-yl)-2H 4H 5H 6H 7H-pyrazolo[4,3-c]pyridine-5-carbonyl]-4-[(1 1 1-trifluoropropan-2-yl)oxy]benzonitrile] here?
**A.** Its IC50 is 100 to 1000 nM.

**Q.** Which IC50 does the source give for `CS(=O)(=O)c1ccc(-c2cccc(F)c2)c(C(=O)N2Cc3cn(CC4CC(F)(F)C4)nc3C2)c1` [Example 464, 2-[(3 3-Difluorocyclobutyl)methyl]-5-[2-(3-fluorophenyl)-5-methanesulfonylbenzoyl]-2H 4H 5H 6H-pyrrolo[3,4-c]pyrazole] here?
**A.** Its IC50 is < 100 nM.

**Q.** How did the IC50 turn out when `CS(=O)(=O)c1ccc(-c2ccccc2)c(C(=O)N2Cc3cn(-c4ccc(F)cn4)nc3C2)c1` [Example 566, 5-Fluoro-2-[5-(5-methanesulfonyl-2-phenylbenzoyl)-2H 4H 5H 6H-pyrrolo[3,4-c]pyrazol-2-yl]pyridine] was run?
**A.** Its IC50 is < 100 nM.

**Q.** Which IC50 does the source give for `Cc1cccc(-n2cc3c(n2)CN(C(=O)c2cc(S(C)(=O)=O)ccc2OCC2CC2)C3)c1F` [Example 139, 5-[2-(Cyclopropylmethoxy)-5-methanesulfonylbenzoyl]-2-(2-fluoro-3-methylphenyl)-2H 4H 5H 6H-pyrrolo[3,4-c]pyrazole] here?
**A.** Its IC50 is < 100 nM.

**Q.** How did the IC50 turn out when `COc1c(C#N)ccc(OC(C)C)c1C(=O)N1Cc2cn(-c3cncc(F)c3)nc2C1` [Example 325, 3-[2-(5-Fluoropyridin-3-yl)-2H 4H 5H 6H-pyrrolo[3,4-c]pyrazole-5-carbonyl]-2-methoxy-4-(propan-2-yloxy)benzonitrile] was run?
**A.** Its IC50 is < 100 nM.

**Q.** For `C[C@H](Oc1ccc(C#N)cc1C(=O)N1Cc2cn(-c3ccncc3)nc2C1)C(F)(F)F` [Example 443, 3-[2-(Pyridin-4-yl)-2H 4H 5H 6H-pyrrolo[3,4-c]pyrazole-5-carbonyl]-4-{[(2S)-1 1 1-trifluoropropan-2-yl]oxy}benzonitrile], which IC50 is on record?
**A.** Its IC50 is < 100 nM.

**Q.** For `COc1c(C#N)ccc(OCC2CC2)c1C(=O)N1Cc2cn(-c3ccc(F)cc3)nc2C1` [Example 317, 4-(Cyclopropylmethoxy)-3-[2-(4-fluorophenyl)-2H 4H 5H 6H-pyrrolo[3,4-c]pyrazole-5-carbonyl]-2-methoxybenzonitrile], which IC50 is on record?
**A.** Its IC50 is < 100 nM.

**Q.** Which IC50 does the source give for `COc1c(C#N)ccc(C2(F)CCOCC2)c1C(=O)N1CCc2nn(-c3ccc(F)cn3)cc2C1` [Example 14, 4-(4-Fluorooxan-4-yl)-3-[2-(5-fluoropyridin-2-yl)-2H 4H 5H 6H 7H-pyrazolo[4,3-c]pyridine-5-carbonyl]-2-methoxybenzonitrile] here?
**A.** Its IC50 is 100 to 1000 nM.

**Q.** `COc1cc(-n2cc3c(n2)CN(C(=O)c2c(O[C@@H](C)C(F)(F)F)ccc(C#N)c2Cl)C3)ccn1` [Example 16, 2-Chloro-3-[2-(2-methoxypyridin-4-yl)-2H 4H 5H 6H-pyrrolo[3,4-c]pyrazole-5-carbonyl]-4-{[(2S)-1 1 1-trifluoropropan-2-yl]oxy}benzonitrile] was tested. Which IC50 did it give?
**A.** The IC50 was < 100 nM.

**Q.** With `CC(C)Oc1ccc(C#N)cc1C(=O)N1Cc2cn(CC3CCC3)nc2C1` [Example 411, 3-[2-(Cyclobutylmethyl)-2H 4H 5H 6H-pyrrolo[3,4-c]pyrazole-5-carbonyl]-4-(propan-2-yloxy)benzonitrile] as the compound, how does the IC50 read?
**A.** Its IC50 is 100 to 1000 nM.

**Q.** For `Cc1ccc(F)c(-n2cc3c(n2)CN(C(=O)c2cc(S(C)(=O)=O)ccc2N2CCC(F)(F)CC2)C3)c1` [Example 124, 4 4-Difluoro-1-{2-[2-(2-fluoro-5-methylphenyl)-2H 4H 5H 6H-pyrrolo[3,4-c]pyrazole-5-carbonyl]-4-methanesulfonylphenyl}piperidine], which IC50 is on record?
**A.** Its IC50 is < 100 nM.

**Q.** How did the IC50 turn out when `CS(=O)(=O)c1ccc(N2CCC(F)(F)CC2)c(C(=O)N2Cc3cn(C4CCCC4)nc3C2)c1` [Example 430, 1-(2-{2-Cyclopentyl-2H 4H 5H 6H-pyrrolo[3,4-c]pyrazole-5-carbonyl}-4-methanesulfonylphenyl)-4 4-difluoropiperidine] was run?
**A.** The IC50 was < 100 nM.

**Q.** `COc1c(C#N)ccc(O[C@@H](C)C(F)(F)F)c1C(=O)N1Cc2cn(-c3c(C)nn(C)c3C)nc2C1` [Example 306, 2-Methoxy-4-{[(2S)-1 1 1-trifluoropropan-2-yl]oxy}-3-[2-(trimethyl-1H-pyrazol-4-yl)-2H 4H 5H 6H-pyrrolo[3,4-c]pyrazole-5-carbonyl]benzonitrile] was tested. Which IC50 did it give?
**A.** Its IC50 is 100 to 1000 nM.

**Q.** For `CC1(COc2ccc(S(C)(=O)=O)cc2C(=O)N2Cc3cn(-c4ccc(F)cc4)nc3C2)COC1` [Example 440, 2-(4-Fluorophenyl)-5-{5-methanesulfonyl-2-[(3-methyloxetan-3-yl)methoxy]benzoyl}-2H 4H 5H 6H-pyrrolo[3,4-c]pyrazole], which IC50 is on record?
**A.** The IC50 was < 100 nM.
